What was measured:
Brain [1] = experiment: Drug uptake in Harlan Sprague-Dawley rat brain at 3 ug/kg, iv after 10 mins by LC-MS/MS analysis; assay type: ADME, organism-based; conditions: in vivo, 0.003 mg/kg
[2] = Lipophilicity, log D of the compound at pH 7.4 by potentiometric method; assay type: physicochemical; conditions: buffer
Mu-type opioid receptor = Mu-type opioid receptor (Homo sapiens, UniProt P35372); experiment: Displacement of [3H]diprenorphine from human cloned mu type opioid receptor expressed in CHO cell membranes by scintillation counter
Sequence of Mu-type opioid receptor (P35372 whole entry): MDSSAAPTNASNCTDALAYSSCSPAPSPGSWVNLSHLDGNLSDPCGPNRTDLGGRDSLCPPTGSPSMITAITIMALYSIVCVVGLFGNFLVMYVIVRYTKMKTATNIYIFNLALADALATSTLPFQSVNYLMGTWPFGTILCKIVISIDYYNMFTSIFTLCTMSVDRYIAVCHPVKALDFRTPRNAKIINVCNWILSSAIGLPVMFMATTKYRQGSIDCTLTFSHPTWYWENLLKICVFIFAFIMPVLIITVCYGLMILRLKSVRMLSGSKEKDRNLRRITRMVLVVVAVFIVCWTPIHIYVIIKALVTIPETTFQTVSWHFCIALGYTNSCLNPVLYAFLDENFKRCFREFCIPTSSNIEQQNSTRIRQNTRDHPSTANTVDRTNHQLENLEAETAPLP

[3] = molecular target: Kappa-type opioid receptor (Homo sapiens, UniProt P41145); experiment: biochemical
Sequence of Kappa-type opioid receptor (P41145 whole entry): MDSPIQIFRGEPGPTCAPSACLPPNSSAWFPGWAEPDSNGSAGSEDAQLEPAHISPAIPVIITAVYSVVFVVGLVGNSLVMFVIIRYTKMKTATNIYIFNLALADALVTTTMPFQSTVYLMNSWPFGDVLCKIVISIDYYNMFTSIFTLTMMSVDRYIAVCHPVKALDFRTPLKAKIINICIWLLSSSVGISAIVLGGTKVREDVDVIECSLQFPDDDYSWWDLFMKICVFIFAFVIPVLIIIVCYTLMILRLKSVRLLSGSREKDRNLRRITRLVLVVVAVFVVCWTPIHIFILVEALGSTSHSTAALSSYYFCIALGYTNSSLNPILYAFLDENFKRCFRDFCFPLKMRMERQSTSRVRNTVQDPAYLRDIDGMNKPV
Description: Displacement of [3H]diprenorphine from human cloned kappa type opioid receptor expressed in CHO cell membranes by scintillation counter

[4] = molecular target: Delta-type opioid receptor (Homo sapiens, UniProt P41143); experiment: biochemical
Sequence of Delta-type opioid receptor (P41143 whole entry): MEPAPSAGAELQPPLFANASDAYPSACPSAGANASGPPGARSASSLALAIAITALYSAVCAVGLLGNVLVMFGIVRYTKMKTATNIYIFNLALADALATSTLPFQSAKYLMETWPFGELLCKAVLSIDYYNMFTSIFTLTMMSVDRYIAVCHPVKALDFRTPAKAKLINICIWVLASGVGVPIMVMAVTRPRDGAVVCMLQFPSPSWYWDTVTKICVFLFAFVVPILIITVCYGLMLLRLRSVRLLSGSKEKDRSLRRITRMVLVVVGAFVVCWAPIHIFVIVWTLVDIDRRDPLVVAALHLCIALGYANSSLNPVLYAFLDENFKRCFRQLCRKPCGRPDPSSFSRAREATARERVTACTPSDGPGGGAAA
Description: Displacement of [3H]diprenorphine from human cloned delta type opioid receptor expressed in CHO cell membranes by scintillation counter

Brain [5] = experiment: Drug uptake in Harlan Sprague-Dawley rat brain at 3 ug/kg, iv up to 60 mins by LC-MS/MS analysis; conditions: in vivo, 1 h
Rattus norvegicus = experiment: In vivo receptor occupancy of NOP receptor in po dosed Harlan Sprague-Dawley rat hypothalamus co-administered with unlabeled tracer compound at 3 ug/kg, iv; assay type: functional

SMILES: CC(C)N(C)C(=O)[C@@H](Cc1ccccc1F)CN1CCC2(CC1)OCCc1cc(F)sc12
- SUV (Brain [1]): 143%
- logD ([2]; read-out: logD): 4.47

SMILES: CN(C)C(=O)C(Cc1ccccc1Cl)CN1CCC2(CC1)OCCc1cc(Cl)sc12.O=C(O)C(O)C(O)C(=O)O (single isomer, unassigned; (-))
- Ki (Mu-type opioid receptor): > 400 nM
- logD ([2]; read-out: logD): 4.61
- Ki [3]: > 400 nM
- Ki [4]: > 400 nM
- SUV (Brain [5]): 75%

SMILES: O=C1NCN(c2ccccc2)C12CCN([C@H]1CC[C@@H]3CCCc4cccc1c43)CC2
- logD ([2]; read-out: logD): 3.46

SMILES: CN(C(=O)C(Cc1ccccc1F)CN1CCC2(CC1)OCCc1cc(F)sc12)C1CC1 (single isomer, unassigned; (-))
- logD ([2]; read-out: logD): 4.77
- SUV (Brain [5]): 82%

SMILES: CN(C)C(=O)C(Cc1ccccc1F)CN1CCC2(CC1)OCCc1ccsc12 (racemic)
- Ki (Mu-type opioid receptor): > 400 nM
- Ki [3]: > 400 nM
- Ki [4]: > 400 nM

SMILES: CNC(=O)C(Cc1ccccc1F)CN1CCC2(CC1)OCCc1cc(Cl)sc12 (single isomer, unassigned; (-))
- logD ([2]; read-out: logD): 4.19
- SUV (Brain [5]): 46%

SMILES: CN(C)C(=O)C(CN1CCC2(CC1)OCCc1cc(F)sc12)Cn1cccn1.O=C(O)C(O)C(O)C(=O)O (single isomer, unassigned; (+))
- logD ([2]; read-out: logD): 2.84
- SUV (Brain [5]): 65%

SMILES: CN(C)C(=O)C(Cc1ccccc1Cl)CN1CCC2(CC1)OCCc1cc(F)sc12 (single isomer, unassigned; (+))
- Ki (Mu-type opioid receptor): > 400 nM
- SUV (Brain [1]): 208%
- logD ([2]; read-out: logD): 4.38
- Ki [3]: > 400 nM
- Ki [4]: > 400 nM

SMILES: CN(C)C(=O)[C@@H](Cc1ccccc1F)CN1CCC2(CC1)OCCc1cc(F)sc12.O=C(O)C(O)C(O)C(=O)O
- Ki (Mu-type opioid receptor): > 400 nM
- SUV (Brain [1]): 154%
- logD ([2]; read-out: logD): 3.89
- Ki [3]: > 400 nM
- Ki [4]: > 400 nM

SMILES: CNC(=O)C(Cc1ccccc1Cl)CN1CCC2(CC1)OCCc1cc(Cl)sc12 (configuration not stated)
- logD ([2]; read-out: logD): 3.77
- SUV (Brain [5]): 87%

SMILES: CN(C)C(=O)C(CN1CCC2(CC1)OCCc1ccsc12)Cn1cccn1 (racemic)
- Ki (Mu-type opioid receptor): > 400 nM
- Ki [3]: > 400 nM
- Ki [4]: > 400 nM

SMILES: CN(C(=O)C(Cc1ccccc1Cl)CN1CCC2(CC1)OCCc1cc(F)sc12)C1CC1 (single isomer, unassigned; (-))
- logD ([2]; read-out: logD): 5.52
- SUV (Brain [5]): 72%

SMILES: CNC(=O)[C@@H](Cc1ccccc1F)CN1CCC2(CC1)OCCc1cc(F)sc12 [NOP-1A]
- SUV (Brain [1]): 124%
- logD [2]: 3.5

SMILES: Cc1cccc2c1CC[C@H](CN1CCC(c3c(Cl)cccc3Cl)CC1)C[C@@H]2O
- Ki (Mu-type opioid receptor): > 400 nM
- logD ([2]; read-out: logD): 3.56
- ED50 (Rattus norvegicus): 6.9 mg/kg
- Ki [3]: > 400 nM
- Ki [4]: > 400 nM
- SUV (Brain [5]): 130%

SMILES: CNC(=O)Cn1c(=O)n(C2CCN([C@@H]3Cc4cccc5cccc3c45)CC2)c2ccccc21
- SUV (Brain [5]): 0%

SMILES: CN(C)C(=O)C(Cc1c(F)cccc1F)CN1CCC2(CC1)OCCc1ccsc12 (racemic)
- Ki (Mu-type opioid receptor): > 400 nM
- Ki [3]: > 400 nM
- Ki [4]: > 400 nM

SMILES: CNC(=O)C(Cc1ccccc1Cl)CN1CCC2(CC1)OCCc1cc(F)sc12 (single isomer, unassigned; (-))
- SUV (Brain [1]): 154%
- logD ([2]; read-out: logD): 3.9

SMILES: CN(C)C(=O)C(Cc1ccccc1Cl)CN1CCC2(CC1)OCCc1ccsc12 (racemic)
- Ki (Mu-type opioid receptor): > 400 nM
- Ki [3]: > 400 nM
- Ki [4]: > 400 nM

SMILES: COC(=O)CN1CN(c2ccccc2)C2(CCN(Cc3cccc4ccccc34)CC2)C1=O
- logD ([2]; read-out: logD): 3.85
- SUV (Brain [5]): 6%

SMILES: NC(=O)C(Cc1ccccc1Cl)CN1CCC2(CC1)OCCc1cc(Cl)sc12 (configuration not stated)
- logD ([2]; read-out: logD): 4.58
- SUV (Brain [5]): 145%

SMILES: CN(C)C(=O)C(Cc1ccccc1F)CN1CCC2(CC1)OCCc1cc(Cl)sc12.O=C(O)C(O)C(O)C(=O)O (single isomer, unassigned; (+))
- Ki (Mu-type opioid receptor): > 400 nM
- logD ([2]; read-out: logD): 4.27
- Ki [3]: > 400 nM
- Ki [4]: > 400 nM
- SUV (Brain [5]): 88%

SMILES: CN(C)C(=O)C(Cc1cscn1)CN1CCC2(CC1)OCc1ccc(F)cc12 (configuration not stated)
- Ki (Mu-type opioid receptor): > 400 nM
- logD ([2]; read-out: logD): 2.02
- Ki [3]: > 400 nM
- Ki [4]: > 400 nM
- SUV (Brain [5]): 25%

SMILES: CN(C)C(=O)C(CN1CCC2(CC1)OCCc1ccsc12)Cn1cccn1.O=C(O)C(O)C(O)C(=O)O (single isomer, unassigned; (-))
- logD ([2]; read-out: logD): 2.03
- SUV (Brain [5]): 15%

From ChEMBL document CHEMBL2086370 (J Med Chem, 2012)
